Measurements: US12655116B2, “Substituted isophthalic acid diamides” (Bayer Aktiengesellschaft, priority 2020, dated 2026)

Experiments:
[1] = tested on: LOLRI; experiment: Pre-emergence herbicidal action against LOLRI; assay type: in vivo, Lolium rigidum; settings: Lolium rigidum, 504 h, 320 g/ha
Summary of the method: (§1)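 Herbicidal effect was assessed 3 weeks after treatment by visual comparison with untreated controls, 100% denoting dead plants. Aqueous WP or EC preparations had been applied at 600 to 800 l/ha with 0.2% wetting agent to the soil covering freshly sown seeds.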

[2] = tested on: AMARE; experiment: Pre-emergence herbicidal action against AMARE; assay type: in vivo, Amaranthus retroflexus; settings: Amaranthus retroflexus, 504 h, 100% = plants have died, 0% = like control plants; for pest or weed control at 80 g/ha: scored visually after 3 weeks vs untreated controls; for pest or weed control at 320 g/ha: scored visually after 3 weeks
Summary of the method: as §1

[3] = tested on: LOLRI; experiment: Post-emergence herbicidal action against LOLRI; assay type: in vivo, Lolium rigidum; settings: Lolium rigidum, 504 h, dosage 80 g/ha
Summary of the method: (§2)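 Post-emergence greenhouse test; one-leaf stage, 2–3 wk post-sowing, sandy loam. Foliar spray of WP/EC in water, 600–800 l/ha, +0.2% wetting agent. Visual % action at ~3 wk vs untreated (100% = plants dead).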

[4] = tested on: PHBPU; experiment: Post-emergence herbicidal action against PHBPU; assay type: in vivo, Pharbitis purpurea; settings: Ipomoea purpurea, 504 h; for pest or weed control at 80 g/ha: dosage 80 g/ha
Summary of the method: as §2

[5] = tested on: AMARE; experiment: Post-emergence herbicidal action against AMARE; assay type: in vivo, Amaranthus retroflexus; settings: Amaranthus retroflexus, 504 h, visual assessment about 3 weeks after treatment, 100% = plants have died, 0% = like control plants
Summary of the method: as §2

[6] = tested on: VIOTR; experiment: Pre-emergence herbicidal action against VIOTR; assay type: in vivo, Viola tricolor; settings: Viola tricolor, 504 h; for pest or weed control at 80 g/ha: dosage 80 g/ha; for pest or weed control at 320 g/ha: dosage 320 g/ha
Summary of the method: as §1

[7] = tested on: VIOTR; experiment: Post-emergence herbicidal action against VIOTR; assay type: in vivo, Viola tricolor; settings: Viola tricolor, 504 h, 80 g/ha
Summary of the method: as §2

[8] = tested on: HORMU; experiment: Pre-emergence herbicidal action against HORMU; assay type: in vivo, Hordeum murinum; settings: Hordeum murinum, 504 h, pre-emergence
Summary of the method: as §1

[9] = tested on: ABUTH; experiment: Pre-emergence herbicidal action against ABUTH; assay type: in vivo, Abutilon theophrasti; settings: Abutilon theophrasti, 504 h; for pest or weed control at 80 g/ha: scored visually after 3 weeks vs untreated controls (100% = plants have died, 0% = like control plants); for pest or weed control at 320 g/ha: Dosage: 320 g/ha, scored visually after 3 weeks, 100% = plants have died, 0% = like control plants
Summary of the method: as §1

[10] = tested on: VERPE; experiment: Pre-emergence herbicidal action against VERPE; assay type: in vivo, Veronica persica; settings: Veronica persica, 504 h, dosage 320 g/ha
Summary of the method: as §1

[11] = tested on: ECHCG; experiment: Pre-emergence herbicidal action against ECHCG; assay type: in vivo, Echinochloa crus-galli; settings: Echinochloa crus-galli, 504 h
Summary of the method: as §1

[12] = tested on: POLCO; experiment: Post-emergence herbicidal action against POLCO; assay type: in vivo, Polygonum convolvulus; settings: Fallopia convolvulus, 504 h; for pest or weed control at 80 g/ha: dosage 80 g/ha
Summary of the method: as §2

[13] = tested on: HORMU; experiment: Post-emergence herbicidal action against HORMU; assay type: in vivo, Hordeum murinum; settings: Hordeum murinum, 504 h; for pest or weed control at 20 g/ha: dosage 20 g/ha; for pest or weed control at 80 g/ha: dosage 80 g/ha
Summary of the method: as §2

[14] = tested on: SETVI; experiment: Pre-emergence herbicidal action against SETVI; assay type: in vivo, Setaria viridis; settings: Setaria viridis, 504 h; for pest or weed control at 80 g/ha: dosage 80 g/ha; for pest or weed control at 320 g/ha: dosage 320 g/ha
Summary of the method: as §1

[15] = tested on: MATIN; experiment: Pre-emergence herbicidal action against MATIN; assay type: in vivo, Matricaria inodora; settings: Tripleurospermum inodorum, 504 h; for pest or weed control at 80 g/ha: dosage 80 g/ha; for pest or weed control at 320 g/ha: dosage 320 g/ha
Summary of the method: as §1

[16] = tested on: STEME; experiment: Pre-emergence herbicidal action against STEME; assay type: in vivo, Stellaria media; settings: Stellaria media, 504 h; for pest or weed control at 80 g/ha: dosage 80 g/ha; for pest or weed control at 320 g/ha: dosage 320 g/ha
Summary of the method: as §1

[17] = tested on: AVEFA; experiment: Pre-emergence herbicidal action against AVEFA; assay type: in vivo, Avena fatua; settings: Avena fatua, 504 h, pre-emergence; for pest or weed control at 320 g/ha: scored visually after 3 weeks, 100% = plants have died, 0% = like control plants
Summary of the method: as §1

[18] = tested on: POLCO; experiment: Pre-emergence herbicidal action against POLCO; assay type: in vivo, Polygonum convolvulus; settings: Fallopia convolvulus, 504 h, dosage 320 g/ha
Summary of the method: as §1

[19] = tested on: ABUTH; experiment: Post-emergence herbicidal action against ABUTH; assay type: in vivo, Abutilon theophrasti; settings: Abutilon theophrasti, 504 h, visual assessment about 3 weeks after treatment vs untreated controls; for pest or weed control at 20 g/ha: dosage 20 g/ha; for pest or weed control at 80 g/ha: dosage 80 g/ha
Summary of the method: as §2

[20] = tested on: VERPE; experiment: Post-emergence herbicidal action against VERPE; assay type: in vivo, Veronica persica; settings: Veronica persica, 504 h
Summary of the method: as §2

[21] = tested on: ALOMY; experiment: Pre-emergence herbicidal action against ALOMY; assay type: in vivo, Alopecurus myosuroides; settings: Alopecurus myosuroides, 504 h, pre-emergence; for pest or weed control at 80 g/ha: scored visually after 3 weeks vs untreated controls (100% = plants have died, 0% = like control plants); for pest or weed control at 320 g/ha: scored visually after 3 weeks, 100% = plants have died, 0% = like control plants
Summary of the method: as §1

[22] = tested on: STEME; experiment: Post-emergence herbicidal action against STEME; assay type: in vivo, Stellaria media; settings: Stellaria media, 504 h
Summary of the method: as §2

SMILES	pest or weed control at 320 g/ha [1] [%]	pest or weed control at 80 g/ha [2] [%]	pest or weed control at 320 g/ha [2] [%]	pest or weed control at 80 g/ha [3] [%]	pest or weed control at 80 g/ha [4] [%]	pest or weed control at 20 g/ha [5] [%]	pest or weed control at 80 g/ha [5] [%]	pest or weed control at 80 g/ha [6] [%]	pest or weed control at 320 g/ha [6] [%]	pest or weed control at 80 g/ha [7] [%]	pest or weed control at 80 g/ha [8] [%]	pest or weed control at 320 g/ha [8] [%]	pest or weed control at 80 g/ha [9] [%]	pest or weed control at 320 g/ha [9] [%]	pest or weed control at 320 g/ha [10] [%]	pest or weed control at 80 g/ha [11] [%]	pest or weed control at 320 g/ha [11] [%]	pest or weed control at 80 g/ha [12] [%]	pest or weed control at 20 g/ha [13] [%]	pest or weed control at 80 g/ha [13] [%]	other results
CNC(=O)c1c(C(F)F)ccc(C(=O)Nc2nnnn2C)c1Cl [Example 1-147]	100	100	100	90	90	90	90	100	100	80	90	100	90	100	90	100	100	90	80	90	pest or weed control at 20 g/ha ([4]; dosage 20 g/ha): 80%; pest or weed control at 20 g/ha ([12]; dosage 20 g/ha): 90%; pest or weed control at 80 g/ha [14]: 100%; pest or weed control at 320 g/ha [14]: 100%; pest or weed control at 80 g/ha [15]: 90%; pest or weed control at 320 g/ha [15]: 100%; pest or weed control at 80 g/ha [16]: 100%; pest or weed control at 320 g/ha [16]: 100%; pest or weed control at 80 g/ha [17]: 100%; pest or weed control at 320 g/ha [17]: 100%; pest or weed control at 320 g/ha [18]: 90%; pest or weed control at 20 g/ha [19]: 90%; pest or weed control at 80 g/ha [19]: 90%; pest or weed control at 20 g/ha [20]: 90%; pest or weed control at 80 g/ha [20]: 90%; pest or weed control at 80 g/ha [21]: 90%; pest or weed control at 320 g/ha [21]: 100%; pest or weed control at 20 g/ha [22]: 80%; pest or weed control at 80 g/ha [22]: 90%
CCn1nnnc1NC(=O)c1ccc(C(F)F)c(C(=O)NC)c1Cl [Example 2-147]	90	100	100	90	80	90	90	100	100	80	90	100	100	100	90	100	100	80	80	90	pest or weed control at 80 g/ha [14]: 100%; pest or weed control at 320 g/ha [14]: 100%; pest or weed control at 80 g/ha [15]: 100%; pest or weed control at 320 g/ha [15]: 100%; pest or weed control at 80 g/ha [16]: 100%; pest or weed control at 320 g/ha [16]: 100%; pest or weed control at 80 g/ha [17]: 100%; pest or weed control at 320 g/ha [17]: 100%; pest or weed control at 320 g/ha [18]: 80%; pest or weed control at 20 g/ha [19]: 90%; pest or weed control at 80 g/ha [19]: 90%; pest or weed control at 20 g/ha [20]: 80%; pest or weed control at 80 g/ha [20]: 90%; pest or weed control at 80 g/ha [21]: 90%; pest or weed control at 320 g/ha [21]: 100%; pest or weed control at 20 g/ha [22]: 80%; pest or weed control at 80 g/ha [22]: 90%
